In US20120129833A1, “CYCLIC KETOENOLS FOR THERAPY” (BAYER PHARMA AKTIENGESELLSCHAFT, priority 2010, published 2012):

Legend:
[1] = biological target: T1, recombinant human ACC1 (acetyl-CoA carboxylase 1) (Homo sapiens, UniProt Q13085); assay: Human ACC1 enzyme assay (HTRF ADP detection); format: biochemical; conditions: 50 μM ATP, 20 μM acetyl-CoA, 15 min pre-incubation, 20 min at 22° C.; read-out: ACC 1 IC50;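 further: ADP by-product quantified by competitive HTRF immunoassay with europium cryptate anti-ADP antibody and d2-labelled ADP, read after 1 h binding at 22 °C, enzyme near 2.5 ng/µl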
T1 construct: NM_198834, amino acids 39—end; FLAG (C); made in house; host or cells: baculovirus-transfected insect cells (Hi5)
Experimental: The basic principle of the assay is the measurement of adenosine diphosphate (ADP), which is formed as a by-product, by means of an HTRF®-based competitive immunoassay (HTRF=Homogeneous Time Resolved Fluorescence).
The amount of complex of d2-labelled ADP and europium cryptate-labelled anti-ADP antibody was then determined by measuring the resonance energy transfer of europium cryptate to d2.

[2] = biological target: T2, ACC2 (acetyl-CoA carboxylase 2) (Homo sapiens, UniProt O00763); assay: Human ACC2 enzyme assay (HTRF ADP detection); format: biochemical; conditions: 20 μM acetyl-CoA, 15 min pre-incubation, 20 min at 22° C.; read-out: ACC 2 IC50
T2 construct: catalogue no; 50201, amino acids 39—end, expressed in baculovirus-transfected Sf9 insect cells; His (C); purchased BPS Bioscience (San Diego, Calif.) 50201; host or cells: baculovirus-transfected Sf9 insect cells
T2 sequence (O00763 39-2458 limits assumed): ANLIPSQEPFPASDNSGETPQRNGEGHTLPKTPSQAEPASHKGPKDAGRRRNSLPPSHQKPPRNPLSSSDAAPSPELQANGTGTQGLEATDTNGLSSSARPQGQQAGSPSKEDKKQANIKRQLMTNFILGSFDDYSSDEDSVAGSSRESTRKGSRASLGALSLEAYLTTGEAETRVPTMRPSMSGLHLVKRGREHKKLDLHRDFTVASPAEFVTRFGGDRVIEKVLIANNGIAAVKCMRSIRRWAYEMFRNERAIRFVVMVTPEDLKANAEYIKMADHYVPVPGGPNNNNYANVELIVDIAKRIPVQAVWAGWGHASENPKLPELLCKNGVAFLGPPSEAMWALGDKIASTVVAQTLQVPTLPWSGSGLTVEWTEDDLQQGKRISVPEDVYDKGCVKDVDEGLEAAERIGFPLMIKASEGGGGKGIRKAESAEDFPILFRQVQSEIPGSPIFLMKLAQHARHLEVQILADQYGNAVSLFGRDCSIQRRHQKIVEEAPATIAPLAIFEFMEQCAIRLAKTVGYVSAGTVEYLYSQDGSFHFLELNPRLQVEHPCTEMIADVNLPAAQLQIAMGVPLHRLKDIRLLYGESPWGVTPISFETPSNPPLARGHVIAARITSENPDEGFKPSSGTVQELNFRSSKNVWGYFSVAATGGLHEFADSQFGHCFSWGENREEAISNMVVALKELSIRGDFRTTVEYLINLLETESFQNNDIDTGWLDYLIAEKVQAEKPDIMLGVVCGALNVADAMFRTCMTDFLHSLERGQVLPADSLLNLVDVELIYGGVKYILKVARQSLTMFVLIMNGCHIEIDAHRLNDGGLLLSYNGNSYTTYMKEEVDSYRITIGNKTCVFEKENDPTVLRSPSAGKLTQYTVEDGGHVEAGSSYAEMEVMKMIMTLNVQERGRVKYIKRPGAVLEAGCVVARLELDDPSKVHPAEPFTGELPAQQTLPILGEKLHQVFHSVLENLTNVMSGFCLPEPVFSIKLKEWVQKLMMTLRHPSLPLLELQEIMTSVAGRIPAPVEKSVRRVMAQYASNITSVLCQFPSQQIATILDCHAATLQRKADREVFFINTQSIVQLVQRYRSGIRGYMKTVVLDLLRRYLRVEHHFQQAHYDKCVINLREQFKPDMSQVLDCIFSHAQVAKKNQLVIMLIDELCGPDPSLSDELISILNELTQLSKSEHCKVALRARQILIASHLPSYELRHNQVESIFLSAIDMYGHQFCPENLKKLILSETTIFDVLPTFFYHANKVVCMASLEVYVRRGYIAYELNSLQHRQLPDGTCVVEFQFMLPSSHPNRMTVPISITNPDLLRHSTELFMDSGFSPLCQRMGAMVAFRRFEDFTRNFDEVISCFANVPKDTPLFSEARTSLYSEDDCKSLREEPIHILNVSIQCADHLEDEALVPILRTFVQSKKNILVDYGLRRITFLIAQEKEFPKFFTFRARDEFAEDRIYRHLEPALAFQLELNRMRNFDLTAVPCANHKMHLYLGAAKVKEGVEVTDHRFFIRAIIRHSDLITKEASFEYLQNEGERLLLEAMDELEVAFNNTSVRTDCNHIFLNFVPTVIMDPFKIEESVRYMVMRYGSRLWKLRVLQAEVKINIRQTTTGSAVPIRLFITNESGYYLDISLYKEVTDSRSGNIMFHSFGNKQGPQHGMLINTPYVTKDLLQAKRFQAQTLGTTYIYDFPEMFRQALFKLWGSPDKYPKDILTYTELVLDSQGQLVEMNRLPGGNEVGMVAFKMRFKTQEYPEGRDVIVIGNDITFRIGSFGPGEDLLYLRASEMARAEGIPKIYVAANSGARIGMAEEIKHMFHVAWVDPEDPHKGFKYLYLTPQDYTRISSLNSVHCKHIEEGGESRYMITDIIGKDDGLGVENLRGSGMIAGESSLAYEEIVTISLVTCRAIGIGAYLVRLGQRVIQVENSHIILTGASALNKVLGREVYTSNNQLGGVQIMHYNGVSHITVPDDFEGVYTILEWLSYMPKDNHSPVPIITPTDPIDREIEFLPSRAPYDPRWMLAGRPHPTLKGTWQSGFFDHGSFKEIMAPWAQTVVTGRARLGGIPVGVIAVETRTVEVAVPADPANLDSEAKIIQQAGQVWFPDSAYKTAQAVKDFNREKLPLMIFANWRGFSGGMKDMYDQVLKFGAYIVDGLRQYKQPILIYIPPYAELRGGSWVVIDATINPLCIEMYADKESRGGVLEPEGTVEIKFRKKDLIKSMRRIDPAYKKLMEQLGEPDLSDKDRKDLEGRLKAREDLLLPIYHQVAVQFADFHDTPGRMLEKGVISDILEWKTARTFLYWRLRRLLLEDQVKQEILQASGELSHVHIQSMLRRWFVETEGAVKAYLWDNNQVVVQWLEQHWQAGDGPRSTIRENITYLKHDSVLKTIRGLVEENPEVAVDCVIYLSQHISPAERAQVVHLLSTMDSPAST

| Structure (SMILES) | IC50 [1] | IC50 [2] |
| --- | --- | --- |
| Cc1ccc(-c2ccc(Cl)cc2)c(C)c1C1=C(O)[C@]2(CC[C@H](OCC(F)(F)F)CC2)NC1=O [Example 1-30, (5s,8s)-3-(4′-chloro-2,4-dimethylbiphenyl-3-yl)-4-hydroxy-8-(2,2,2-trifluoroethoxy)-1-azaspiro[4.5]dec-3-en-2-one] | 542 nM | 300 nM |
| CCC1CCC2(CC1)CC(=O)C(c1cc(-c3ccc(Cl)cc3)ccc1C)=C2O (stereo not drawn) [Example 6-5, 3-(4′-chloro-4-methylbiphenyl-3-yl)-8-ethyl-4-hydroxyspiro[4.5]dec-3-en-2-one] | 754 nM | 565 nM |
| Cc1cc(C)c(-c2ccc(Cl)cc2)cc1C1=C(O)C2(CCCCC2)SC1=O [Example 3-3, 3-(4′-chloro-4,6-dimethylbiphenyl-3-yl)-4-hydroxy-1-thiaspiro[4.5]dec-3-en-2-one] | 340 nM | 250 nM |
| Cc1ccc(-c2ccc(Cl)cc2)c(C)c1C1C(=O)N2CCOCCN2C1=O [Example 8-8, 8-(4′-chloro-2,4-dimethylbiphenyl-3-yl)tetrahydro-7H-pyrazolo[1,2-d][1,4,5]oxadiazepine-7,9(8H)-dione] | 936 nM | 16900 nM |
| Cc1ccc(-c2ccc(Cl)cc2)cc1C1=C(O)CN(C(C)C)C1=O [Example 1-17, 3-(4′-chloro-4-methylbiphenyl-3-yl)-4-hydroxy-1-(propan-2-yl)-1,5-dihydro-2H-pyrrol-2-one] | 334 nM | 4020 nM |
| Cc1ccc(-c2ccc(Cl)cc2)cc1C1=C(O)C2CSCCN2C1=O (stereo not drawn) [Example 1-21, 7-(4′-chloro-4-methylbiphenyl-3-yl)-8-hydroxy-1,3,4,8a-tetrahydro-6H-pyrrolo[2,1-c][1,4]thiazin-6-one] | 533 nM | 15100 nM |
| COC1CCC2(C1)NC(=O)C(c1c(C)ccc(-c3ccc(Cl)cc3)c1C)=C2O (stereo not drawn) [Example 1-48, 3-(4′-chloro-2,4-dimethylbiphenyl-3-yl)-4-hydroxy-7-methoxy-1-azaspiro[4.4]non-3-en-2-one] | 1010 nM | 8600 nM |
| Cc1cc(C)c(-c2ccc(Cl)cc2)c(C)c1C1=C(O)C(C)(C)OC1=O [Example 2-5, 3-(4′-chloro-2,4,6-trimethylbiphenyl-3-yl)-4-hydroxy-5,5-dimethylfuran-2(5H)-one] | 1480 nM | 5720 nM |
| O=C1C(c2cc(-c3ccc(F)cc3F)ccc2Cl)C(=O)N2CCOCCN12 [Example 8-11, 8-(4-chloro-2′,4′-difluorobiphenyl-3-yl)tetrahydro-7H-pyrazolo[1,2-d][1,4,5]oxadiazepine-7,9(8H)-dione] | 713 nM | > 20000 nM |
| Cc1ccc(-c2ccc(F)c(F)c2)cc1C1=C(O)C2(CCOCC2)NC1=O [Example 1-37, 3-(3′,4′-difluoro-4-methylbiphenyl-3-yl)-4-hydroxy-8-oxa-1-azaspiro[4.5]dec-3-en-2-one] | 810 nM | > 20000 nM |
| Cc1cc(C)c(-c2ccc(Cl)cc2)c(C)c1C1=C(O)C2(CCCCC2)OC1=O [Example 2-6, 3-(4′-chloro-2,4,6-trimethylbiphenyl-3-yl)-4-hydroxy-1-oxaspiro[4.5]dec-3-en-2-one] | 2150 nM | 139 nM |
| Cc1ccc(-c2ccc(Cl)cc2)cc1C1=C(O)C(C)(C(C)C)NC1=O (stereo not drawn) [Example 1-78, 3-(4′-chloro-4-methylbiphenyl-3-yl)-4-hydroxy-5-methyl-5-(propan-2-yl)-1,5-dihydro-2H-pyrrol-2-one] | 795 nM | 1730 nM |
| Cc1cc(C)c(-c2ccc(Cl)cc2)cc1C1=C(O)CC(C)(C)CC1=O [Example 7-3, 2-(4′-chloro-4,6-dimethylbiphenyl-3-yl)-3-hydroxy-5,5-dimethylcyclohex-2-en-1-one] | 1590 nM | 5340 nM |
| COC1CCCC2(C1)OC(=O)C(c1c(C)cc(C)c(-c3ccc(Cl)cc3)c1C)=C2O (stereo not drawn) [Example 2-12, 3-(4′-chloro-2,4,6-trimethylbiphenyl-3-yl)-4-hydroxy-7-methoxy-1-oxaspiro[4.5]dec-3-en-2-one] | 4170 nM | 1150 nM |
| COCC1CCC2(CC1)OC(=O)C(c1c(C)ccc(-c3ccc(Cl)cc3)c1C)=C2O (stereo not drawn) [Example 2-17, 3-(4′-chloro-2,4-dimethylbiphenyl-3-yl)-4-hydroxy-8-(methoxymethyl)-1-oxaspiro[4.5]dec-3-en-2-one] | 158 nM | 652 nM |
| Cc1cc(C)c(-c2ccc(Cl)cc2)cc1C1=C(O)[C@]2(CC[C@@]3(CCCO3)CC2)OC1=O [Example 2-30, (5r,8s)-3-(4′-chloro-4,6-dimethylbiphenyl-3-yl)-4-hydroxy-1,9-dioxadispiro[4.2.4.2]tetradec-3-en-2-one] | 281 nM | 32 nM |
| Cc1ccc(-c2ccc(Cl)cc2)cc1C1=C(O)C2(CCCCCC2)OC1=O [Example 2-38, 3-(4′-chloro-4-methylbiphenyl-3-yl)-4-hydroxy-1-oxaspiro[4.6]undec-3-en-2-one] | 416 nM | 3780 nM |

| Structure (SMILES) | IC50 [1] | IC50 [2] |
| --- | --- | --- |
| COCC1CCC2(CC1)OC(=O)C(c1cc(-c3ccc(Cl)cc3)ccc1Cl)=C2O (stereo not drawn) [Example 2-16, 3-(4,4′-dichlorobiphenyl-3-yl)-4-hydroxy-8-(methoxymethyl)-1-oxaspiro[4.5]dec-3-en-2-one] | 180 nM | 3340 nM |
| Cc1ccc(-c2ccc(Cl)cc2)c(C)c1C1=C(O)C2(CCOCC2)NC1=O [Example 1-1, 3-(4′-chloro-2,4-dimethylbiphenyl-3-yl)-4-hydroxy-8-oxa-1-azaspiro[4.5]dec-3-en-2-one] | 460 nM | 8800 nM |
| O=C1N[C@]2(CC[C@@H](OCC(F)(F)F)CC2)C(O)=C1c1cc(-c2ccc(Cl)cc2)ccc1Cl [Example 1-29, (5s,8s)-3-(4,4′-dichlorobiphenyl-3-yl)-4-hydroxy-8-(2,2,2-trifluoroethoxy)-1-azaspiro[4.5]dec-3-en-2-one] | 270 nM | 1900 nM |
| Cc1ccc(-c2ccc(F)cc2)cc1C1=C(O)C2(CCCCC2)OC1=O [Example 2-21, 3-(4′-fluoro-4-methylbiphenyl-3-yl)-4-hydroxy-1-oxaspiro[4.5]dec-3-en-2-one] | 400 nM | > 20000 nM |
| Cc1cc(C)c(-c2ccc(Cl)cc2)c(C)c1C1=C(O)C2(CCCCCC2)OC1=O [Example 2-48, 3-(4′-chloro-2,4,6-trimethylbiphenyl-3-yl)-4-hydroxy-1-oxaspiro[4.6]undec-3-en-2-one] | 1800 nM | 204 nM |
| Cc1ccc(-c2ccc(Cl)cc2)c(C)c1C1=C(O)[C@]2(CC[C@]3(CCCO3)CC2)OC1=O [Example 2-26, (5s,8r)-3-(4′-chloro-2,4-dimethylbiphenyl-3-yl)-4-hydroxy-1,9-dioxadispiro[4.2.4.2]tetradec-3-en-2-one] | 260 nM | 4800 nM |
| Cc1ccc(-c2ccc(Cl)cc2)c(C)c1C1=C(O)C2(CCC3(CCCO3)CC2)NC1=O (stereo not drawn) [Example 1-34, 11-(4′-chloro-2,4-dimethylbiphenyl-3-yl)-12-hydroxy-1-oxa-9-azadispiro[4.2.4.2]tetradec-11-en-10-one] | 470 nM | 9400 nM |
| O=C1OC2(CCCC2)C(O)=C1c1cc(-c2cc(F)c(F)c(F)c2)ccc1Cl [Example 2-24, 3-(4-chloro-3′,4′,5′-trifluorobiphenyl-3-yl)-4-hydroxy-1-oxaspiro[4.4]non-3-en-2-one] | 997 nM | > 20000 nM |
| Cc1ccc(-c2ccc(F)cc2)c(C)c1C1=C(O)C2(CCC(OCC(F)(F)F)CC2)NC1=O (stereo not drawn) [Example 1-31, 3-(4′-fluoro-2,4-dimethylbiphenyl-3-yl)-4-hydroxy-8-(2,2,2-trifluoroethoxy)-1-azaspiro[4.5]dec-3-en-2-one] | 963 nM | 5960 nM |
| COC1CCCC2(C1)OC(=O)C(c1cc(-c3ccc(Cl)cc3)ccc1Cl)=C2O (stereo not drawn) [Example 2-13, 3-(4,4′-dichlorobiphenyl-3-yl)-4-hydroxy-7-methoxy-1-oxaspiro[4.5]dec-3-en-2-one] | 816 nM | > 20000 nM |
| O=C1C(c2cc(-c3ccc(Cl)cc3Cl)ccc2Cl)C(=O)N2CCOCCN12 [Example 8-9, 8-(2′,4,4′-trichlorobiphenyl-3-yl)tetrahydro-7H-pyrazolo[1,2-d][1,4,5]oxadiazepine-7,9(8H)-dione] | 457 nM | > 20000 nM |
| Cc1ccc(-c2ccc(C)c(C3=C(O)C4(CCCOC4)NC3=O)c2)cc1 (stereo not drawn) [Example 1-14, 3-(4,4′-dimethylbiphenyl-3-yl)-4-hydroxy-7-oxa-1-azaspiro[4.5]dec-3-en-2-one] | 990 nM | > 20000 nM |
| O=C1OC2(CCCCC2)C(O)=C1c1cc(-c2ccc(F)c(F)c2)ccc1Cl [Example 2-25, 3-(4-chloro-3′,4′-difluorobiphenyl-3-yl)-4-hydroxy-1-oxaspiro[4.5]dec-3-en-2-one] | 442 nM | > 20000 nM |
| Cc1cc(C)c(-c2ccc(Cl)cc2)c(C)c1C1=C(O)[C@]2(CC[C@@]3(CCCO3)CC2)OC1=O [Example 2-31, (5r,8s)-3-(4′-chloro-2,4,6-trimethylbiphenyl-3-yl)-4-hydroxy-1,9-dioxadispiro[4.2.4.2]tetradec-3-en-2-one] | 880 nM | 48 nM |
| CCCC1CCC2(CC1)NC(=O)C(c1cc(-c3ccc(Cl)cc3)ccc1C)=C2O (stereo not drawn) [Example 1-83, 3-(4′-chloro-4-methylbiphenyl-3-yl)-4-hydroxy-8-propyl-1-azaspiro[4.5]dec-3-en-2-one] | 459 nM | 349 nM |
| COC1CCCC2(C1)NC(=O)C(c1c(C)ccc(-c3ccc(Cl)cc3)c1C)=C2O (stereo not drawn) [Example 1-72, 3-(4′-chloro-2,4-dimethylbiphenyl-3-yl)-4-hydroxy-7-methoxy-1-azaspiro[4.5]dec-3-en-2-one] | 1180 nM | 2340 nM |
